The values that follow are results of earlier work, collected in patent US20040147490A1, “2-Amino-propanol derivatives” (priority 2001, published 2004).

For the series the following is noted: comparison substance.

Turning to `CCCCCCCCCCCCC/C=C/[C@@H](O)[C@@H](N)COP(=O)(O)O` [sphingosine-1 phosphate], the negative chronotropic effects result was “negative chronotropic effects”.
